# Experimental data taken from the OPERA property sets (Mansouri et al. 2018).
# Conditions: not given
SMILES,log10 Koa,log10 vapour pressure (mmHg),boiling point [°C],log10 Henry constant (atm·m³/mol),melting point [°C],log10 Koc (L/kg),ready biodegradability,log10 biodegradation half-life (days)
Clc1cc(Cl)c2c(Cl)c(Cl)cc(Cl)c2c1Cl,9.69,-6.46,–,–,–,–,–,–
ClCC(Cl)C(Cl)Cl (stereo unspecified),–,–,180,–,–,–,–,–
O=C(C1CC1)C1CC1,–,–,161,–,–,–,–,–
Cc1ccc2c(c1)CC(C)CC2 (stereo unspecified),–,–,237,–,–,–,–,–
Cc1ccccc1CCl,–,–,198,–,–,–,–,–
Clc1cc(Cl)cc(-c2ccc(Cl)c(Cl)c2)c1,–,–,–,-4.05,–,–,–,–
BrC(Br)(Br)c1ccc2ccccc2n1,–,–,–,–,128,–,–,–
CC(=O)c1cc(Cl)ccc1Cl,–,–,–,–,12,–,–,–
C[Si](C)(C)O[Si](C)(C)C,–,1.62,99,–,-66,–,–,–
CCCCOc1ccc(/N=N/c2ccc(N)nc2N)cn1,–,–,–,–,129,–,–,–
Nc1ccc(/N=N/c2ccc(S(N)(=O)=O)cc2)c(N)c1,–,–,–,–,250,–,–,–
O=C(O)c1cccc(Cl)n1,–,–,–,–,–,1.37,not readily biodegradable,–
CCCOP(=S)(OCCC)SCC(=O)N1CCCCC1C (stereo unspecified),–,-6.62,–,–,–,3.44,–,–
COC(=O)CCC(=O)OC,–,-0.387,196,–,19,–,readily biodegradable,–
CCNC(=O)NC(=O)/C(C#N)=N/OC,–,-5.95,–,–,160,2.09,–,–
C=CCCCCCCCCC(=O)OC,–,–,248,–,-27.5,–,–,–
O=C(O)C(O)C(Cl)(Cl)Cl (stereo unspecified),–,–,–,–,125,–,–,–
CCCCCCCCCCN,–,-1,220,–,17,–,readily biodegradable,–
ClC1=C(Cl)C(Cl)(C2(Cl)C(Cl)=C(Cl)C(Cl)=C2Cl)C(Cl)=C1Cl,–,-5.66,–,–,122,4.52,–,–
CCOCn1c(-c2ccc(Cl)cc2)c(C#N)c(Br)c1C(F)(F)F,–,–,–,–,100,–,–,–
Nc1ccc(-c2ccc(N)cc2Cl)c(Cl)c1,–,–,–,–,165,–,–,–
CCCC(=O)Nc1ccc(O)cc1,–,–,–,–,140,–,–,–
Oc1ccc2cc(O)ccc2c1,–,–,–,–,220,–,–,–
c1ccc2c(c1)[nH]c1cnccc12,–,–,–,–,199,–,–,–
CCOP(=S)(OCC)SCSc1ccc(Cl)cc1,–,-6.52,–,–,–,4.66,–,–

SMILES,log10 Koa,log10 vapour pressure (mmHg),boiling point [°C],log10 Henry constant (atm·m³/mol),melting point [°C],log10 Koc (L/kg),ready biodegradability,log10 biodegradation half-life (days)
FC(F)(F)C(F)(F)C(F)(F)C(F)(F)C(F)(F)C(F)(F)C(F)(F)Cl,–,–,108,–,–,–,–,–
COc1ccc2cc3[n+](cc2c1OC)CCc1cc2c(cc1-3)OCO2,–,–,–,–,145,–,–,–
Cc1cc(Sc2cc(C)c(O)c(C(C)(C)C)c2)cc(C(C)(C)C)c1O,–,–,–,–,126,–,–,–
O=C(O)[C@@H]1CCCO1,–,–,–,–,21,–,–,–
N#CCc1cccc2ccccc12,–,–,–,–,32.5,–,–,–
O=C(O)CCOc1cccc2ccccc12,–,–,–,–,146,–,–,–
CC(C)=CC(C)C,–,–,83.4,–,-128,–,–,–
OCC#CCO,–,-3.25,238,–,50,–,–,–
O=C(O)c1cccc(C(=O)O)c1,–,–,–,–,347,–,readily biodegradable,–
CCc1ccc(C(=O)NN(C(=O)c2cc(C)cc(C)c2)C(C)(C)C)cc1,–,-7.65,–,–,191,–,–,–
CCCCCCCCCCC(C)=O,–,-1.69,246,–,21,–,–,–
C=C(C)C(CC)CC,–,–,110,–,-113,–,–,–
CCCCCCCCCCCCCCCCCCCCBr,–,-6.08,–,–,37.5,–,–,–
CC(C)(C)c1ccc(C(O)CCCN2CCC(C(O)(c3ccccc3)c3ccccc3)CC2)cc1 (stereo unspecified),–,–,–,–,147,–,–,–
CC(C)O,–,1.66,82.3,-5.09,-89.5,–,readily biodegradable,–
O=c1[nH]c(=O)n(C2CCCO2)cc1F (stereo unspecified),–,–,–,–,172,–,–,–
O=S1(=O)OCCO1,–,–,–,–,99,–,–,–
O=C1c2ccccc2C(=O)c2c1cc(O)c(O)c2O,–,–,–,–,313,–,–,–
CC(C)C(O)(c1ccc(OC(F)(F)F)cc1)c1cncnc1 (stereo unspecified),–,-6.44,264,–,95,–,–,–
Clc1cc(Cl)c(Cl)c(-c2cc(Cl)c(Cl)cc2Cl)c1,–,–,–,-4.6,–,–,–,–
Oc1ccccc1-c1ccccc1O,–,–,320,–,109,–,–,–
O=c1c2ccccc2oc2ccccc12,–,–,351,–,174,–,–,–
Cc1ccc2c(C)c(C)ccc2c1,–,–,–,–,14,–,–,–
Cc1ccc(C(N)=O)cc1,–,–,–,–,162,1.78,–,–
O=CC1CCC=CO1 (stereo unspecified),–,–,146,–,–,–,–,–

SMILES,log10 Koa,log10 vapour pressure (mmHg),boiling point [°C],log10 Henry constant (atm·m³/mol),melting point [°C],log10 Koc (L/kg),ready biodegradability,log10 biodegradation half-life (days)
CCCC(=O)c1cc(O)c(O)cc1O,–,–,–,–,154,–,–,–
COc1ccc(C(C)=O)cc1OC,–,–,287,–,51,–,–,–
O=C(O)c1cc(I)ccc1O,–,–,–,–,190,–,–,–
CSc1ccc2c(c1)N(CCC1CCCCN1C)c1ccccc1S2 (stereo unspecified),–,–,–,–,73,–,–,–
CC(F)(F)CCl,–,–,55,–,-56.2,–,–,–
O=C(O)c1c(Cl)cc(Cl)cc1Cl,–,–,–,–,162,–,–,–
COC(=O)COc1ccc(Cl)cc1Cl,–,-2.64,–,–,119,–,–,–
CCCCCCCCNCCCCCCCC,–,–,298,–,35.5,–,readily biodegradable,–
Cc1cccc(S)c1,–,-0.257,195,–,-20,–,–,–
NCCCCCCNCCCCCCN,–,–,–,–,33,–,–,–
CC(CNC(=O)c1ccccc1)C(=O)OCC(=O)[C@@]12OC(C)(C)O[C@@H]1C[C@H]1[C@@H]3CCC4=CC(=O)C=C[C@]4(C)[C@@]3(F)[C@@H](O)C[C@@]12C (stereo partly specified),–,–,–,–,205,–,–,–
c1cc(-c2ncco2)cc(-c2ncco2)c1,–,–,–,–,–,–,not readily biodegradable,–
Cc1ccc(C(C)C)c(C)c1,–,–,197,–,-82,–,–,–
FC(Cl)(Cl)Br,–,–,52,–,-106,–,–,–
CCCCCCC(C)O (stereo unspecified),–,-0.616,–,-3.91,–,–,readily biodegradable,–
COC(=O)c1cccc([N+](=O)[O-])c1,–,–,–,–,78,–,–,–
C=CCO,–,1.42,97,-5.3,-129,–,readily biodegradable,–
CCCCC(C)C(C)C (stereo unspecified),–,–,140,–,-116,–,–,–
O=C=Nc1cccc2c(N=C=O)cccc12,–,-4.47,330,–,130,–,–,–
FC(F)(F)S(F)(F)(F)(F)F,–,–,-20,–,-87,–,–,–
CCC1CCCCC1,–,1.11,132,–,-111,–,not readily biodegradable,0.301
CN(C)CCc1c[nH]c2cccc(O)c12,–,–,–,–,174,–,–,–
O=C(O)CN(CC(=O)O)CC(=O)O,–,–,–,–,–,–,not readily biodegradable,–
CCOP(=O)(OCC)SCc1ccccc1,–,–,–,–,–,2.4,–,–
CN(C)c1ccc(Cl)cc1,–,–,231,–,35.5,–,–,–

SMILES,log10 Koa,log10 vapour pressure (mmHg),boiling point [°C],log10 Henry constant (atm·m³/mol),melting point [°C],log10 Koc (L/kg),ready biodegradability,log10 biodegradation half-life (days)
Cn1cc[nH]c1=S,–,–,280,–,146,–,–,–
CC(C)CC(=O)C1C(=O)c2ccccc2C1=O,–,–,–,–,68.5,–,–,–
CCCC(C)C(CC)CC (stereo unspecified),–,–,165,–,–,–,–,–
Nc1ccc(Cl)cc1,–,-1.57,232,–,72.5,1.96,not readily biodegradable,–
COC1=C(OC)C(=O)C(C)=C(C)C1=O,–,–,–,–,62.5,–,–,–
CC1CCC(C)CC1 (stereo unspecified),–,1.25,120,–,-87,–,–,–
O=[N+]([O-])c1ccc(Oc2ccc(C(F)(F)F)cc2[N+](=O)[O-])cc1,–,–,–,–,94,–,–,–
CC(C)CC(O)CC(C)C,–,-0.519,174,–,–,–,–,–
CC(=O)Nc1ccccc1C(=O)O,–,–,–,–,186,–,–,–
NC(=O)OCC(Cl)(Cl)Cl,–,–,–,–,64,–,–,–
N[C@@H](Cc1cc(I)c(Oc2cc(I)c(O)c(I)c2)c(I)c1)C(=O)O,–,–,–,–,236,–,–,–
Cc1ccc([N+](=O)[O-])cc1O,–,–,–,–,–,–,not readily biodegradable,–
CC(=O)CC(C)(C)O,–,0.233,168,–,-44,–,readily biodegradable,–
OCC(F)(F)C(F)(F)F,–,1.66,82,-4.65,–,–,–,–
ClC=CBr,–,–,84.6,–,-86.7,–,–,–
COCC(=NOCC(=O)OC)c1cc(Oc2ccc(C(F)(F)F)cc2Cl)ccc1[N+](=O)[O-],–,–,–,–,58,–,–,–
Cc1cc(C=O)ccc1O,–,–,–,–,119,–,–,–
CCC1OCC(COc2ccc(Oc3ccccc3)cc2)O1 (stereo unspecified),–,-6.08,–,–,–,–,–,–
CC(C)CNCCO,–,–,199,–,–,–,–,–
Fc1ccccc1I,–,–,189,–,-41.5,–,–,–
CC(C)C(C)N (stereo unspecified),–,–,85.5,–,-50,–,–,–
Clc1cc(Cl)c(Cl)c(-c2c(Cl)c(Cl)c(Cl)c(Cl)c2Cl)c1,–,–,–,-4.85,–,–,–,–
CC1CCC(=O)N1C (stereo unspecified),–,–,217,–,–,–,–,–
C#CC(C)=O,–,–,84,–,–,–,–,–
CC(=O)CCc1ccccc1,–,–,234,–,-13,–,not readily biodegradable,–

SMILES,log10 Koa,log10 vapour pressure (mmHg),boiling point [°C],log10 Henry constant (atm·m³/mol),melting point [°C],log10 Koc (L/kg),ready biodegradability,log10 biodegradation half-life (days)
CCC(=O)OC(C)(C)C,–,–,118,–,–,–,–,–
CCCCC(=O)OCCC,–,–,168,–,-70.7,–,–,–
C=CC(=O)OCCOC,–,–,–,–,–,–,readily biodegradable,–
Cc1ccc(NCc2ccccc2)cc1,–,–,319,–,19.5,–,–,–
COc1ccc(C(=O)O)cc1OC,–,-3.61,–,–,181,–,–,–
C[Si](C)(Cl)C(Cl)Cl,–,–,149,–,-48,–,–,–
ClC(Cl)C(Cl)C(Cl)Cl,–,-0.0278,199,–,-10,–,not readily biodegradable,–
c1ccc2nn(C3CCCCC3)nc2c1,–,–,–,–,46.5,–,–,–
CCCCCCCCCCCCCC(=O)OC(=O)CCCCCCCCCCCCC,–,–,–,–,53.4,–,–,–
CC(O)c1ccccc1 (stereo unspecified),–,–,205,–,15,1.5,readily biodegradable,–
N#CC(Cl)(Cl)Cl,–,1.87,85.7,–,-42,–,–,–
Clc1ccc(C(Cl)Cl)c(Cl)c1Cl,–,–,278,–,84,–,–,–
Nc1nc2nn[nH]c2c(=O)[nH]1,–,–,–,–,300,–,–,–
CC(C)(C)c1ccc(N)cc1,–,–,241,–,17,–,–,–
Cc1c(O)ccc(O)c1C,–,–,–,–,224,–,–,–
CCOC(=O)C1(S(=O)(=O)c2ccc(C)cc2)CC1,–,–,–,–,75.5,–,–,–
CC1=CC(=O)NS(=O)(=O)O1,–,–,–,–,123,–,–,–
Cc1cccc([N+](=O)[O-])c1N,–,–,–,–,96,–,–,–
OCC1(CO)CC=CCC1,–,–,–,–,88.5,–,–,–
ClC(Cl)C(Cl)Cl,–,0.665,146,-3.44,-43.8,1.9,not readily biodegradable,–
N#CSCc1ccccc1,–,–,232,–,43,–,–,–

# Same assay, conditions: fish
SMILES,log10 biotransformation half-life (days),log10 BCF
Clc1cc(Cl)c(Cl)c(-c2cc(Cl)c(Cl)cc2Cl)c1,2.4,–
CCCCC(C)C(C)C (stereo unspecified),1.28,–
Nc1ccc(Cl)cc1,-0.61,0.84
Cc1ccc([N+](=O)[O-])cc1O,-1.24,0.85
ClC(Cl)C(Cl)Cl,-0.67,1.11
